Experimental data as given in patent US10160724B2, “Tetrahydropyridine derivatives and their use as antibacterial agents” (Dong-A St Co., Ltd., priority 2016, dated 2018).
≈ marks a conversion by molar mass, not a printed value.

What was measured:
Test in all cases: In vitro antibiotic activity, agar dilution method (Mueller-Hinton agar, NCCLS)
Type in all cases: cell-based
P. aeruginosa PAO1 = conditions: Pseudomonas aeruginosa, PAO1; agar dilution, Mueller-Hinton agar; read-out: MIC for P. aeruginosa PAO1
Description: (§1) To measure the antibiotic activity of the compounds prepared by Examples, antibiotic activity test in vitro was performed by agar dilution method using Mueller-Hinton agar according to the NCCLS (National Committee for Clinical Laboratory Standards. 2000. Methods for dilution antimicrobial susceptibility tests for bacteria that grow aerobiocally. Approved standard, NCCLS document M7-M5, 5th ed, vol 20, no 2. National Committee for Clinical Laboratory Standards, Wayne, Pa.). The test strain was Escherichia coli (ATCC 25922), Klebsiella pneumonia (ATCC 29665) and Pseudomonas aeriginosa (PAO1).

E. coli ATCC 25922 = conditions: Escherichia coli, ATCC25922; agar dilution, Mueller-Hinton agar; read-out: MIC for E. coli ATCC 25922
Description: as §1

K. pneumoniae ATCC 29665 = conditions: Klebsiella pneumoniae, ATCC29665; agar dilution, Mueller-Hinton agar; read-out: MIC for K. pneumoniae ATCC 29665
Description: as §1

SMILES	MIC (P. aeruginosa PAO1) [µg/mL]	MIC (E. coli ATCC 25922) [µg/mL]	MIC (K. pneumoniae ATCC 29665) [µg/mL]
CC(CCN1CC=C(c2ccc(C#Cc3ccc(O)cc3)cc2)CC1)(C(=O)NO)S(C)(=O)=O (stereo not drawn) [Example 37, N-hydroxy-4-(4-(4-((4-hydroxyphenyl)ethynyl)phenyl)-3,6-dihydropyridin-1(2H)-yl)-2-methyl-2-(methylsulfonyl)butanamide]	> 16	< 1	> 16
CCCCCc1ccc(-c2ccc(C3=CCN(CCC(C)(C(=O)NO)S(C)(=O)=O)CC3)cc2)cc1 (stereo not drawn) [Example 67, N-hydroxy-2-methyl-2-(methylsulfonyl)-4-(4-(4′-pentyl-[1,1′-biphenyl]-4-yl)-3,6-dihydropyridin-1(2H)-yl)butanamide]	> 16	8 to 16 (≈ 16 to 32.1 µM)	> 16
CN1CC(C#Cc2ccc(C3=CCN(CCC(C)(C(=O)NO)S(C)(=O)=O)CC3)cc2)C1 (stereo not drawn) [Example 39, N-hydroxy-2-methyl-4-(4-(4-((1-methylazetidin-3-yl)ethynyl)phenyl)-3,6-dihydropyridin-1(2H)-yl)-2-(methylsulfonyl)butanamide]	8 to 16 (≈ 18 to 35.9 µM)	8 to 16 (≈ 18 to 35.9 µM)	8 to 16 (≈ 18 to 35.9 µM)
CC(CCN1CC=C(c2ccc(-c3cccnc3)cc2)CC1)(C(=O)NO)S(C)(=O)=O (stereo not drawn) [Example 61, N-hydroxy-2-methyl-2-(methylsulfonyl)-4-(4-(4-(pyridin-3-yl)phenyl)-3,6-dihydropyridin-1(2H)-yl)butanamide]	1 to 8 (≈ 2.33 to 18.6 µM)	1 to 8 (≈ 2.33 to 18.6 µM)	> 16
CN(C)CC#Cc1ccc(C2=CCN(CCC(C)(C(=O)NO)S(C)(=O)=O)CC2)cc1 (stereo not drawn) [Example 7, 4-(4-(4-(3-(dimethylamino)prop-1-yn-1-yl)phenyl)-3,6-dihydropyridin-1(2H)-yl)-N-hydroxy-2-methyl-2-(methylsulfonyl)butanamide]	1 to 8 (≈ 2.31 to 18.5 µM)	1 to 8 (≈ 2.31 to 18.5 µM)	1 to 8 (≈ 2.31 to 18.5 µM)
CC(CCN1CC=C(c2ccc(C#Cc3ccccc3)cc2)CC1)(C(=O)NO)S(C)(=O)=O (stereo not drawn) [Example 2, N-hydroxy-2-methyl-2-(methylsulfonyl)-4-(4-(4-(phenylethynyl)phenyl)-3,6-dihydropyridin-1(2H)-yl)butanamide]	1 to 8 (≈ 2.21 to 17.7 µM)	< 1	1 to 8 (≈ 2.21 to 17.7 µM)
CC(CCN1CC=C(c2ccc(-c3ccccc3)cc2)CC1)(C(=O)NO)S(C)(=O)=O (stereo not drawn) [Example 56, 4-(4-([1,1′-biphenyl]-4-yl)-3,6-dihydropyridin-1(2H)-yl)-N-hydroxy-2-methyl-2-(methylsulfonyl)butanamide]	8 to 16 (≈ 18.7 to 37.3 µM)	< 1	< 1
CC(CCN1CC=C(c2ccc(C#Cc3cccnc3)cc2)CC1)(C(=O)NO)S(C)(=O)=O (stereo not drawn) [Example 36, N-hydroxy-2-methyl-2-(methylsulfonyl)-4-(4-(4-(pyridin-3-ylethynyl)phenyl)-3,6-dihydropyridin-1(2H)-yl)butanamide]	1 to 8 (≈ 2.2 to 17.6 µM)	< 1	1 to 8 (≈ 2.2 to 17.6 µM)
CC(CN1CC=C(c2ccc(-c3ccccc3)cc2)CC1)(C(=O)NO)S(C)(=O)=O (stereo not drawn) [Example 76, 3-(4-([1,1′-biphenyl]-4-yl)-3,6-dihydropyridin-1(2H)-yl)-N-hydroxy-2-methyl-2-(methylsulfonyl)propanamide]	> 16	> 16	> 16
CC(CCN1CC=C(c2ccc(-c3ccc(CN4CCOCC4)cc3)cc2)CC1)(C(=O)NO)S(C)(=O)=O (stereo not drawn) [Example 74, N-hydroxy-2-methyl-2-(methylsulfonyl)-4-(4-(4′-(morpholinomethyl)-[1,1′-biphenyl]-4-yl)-3,6-dihydropyridin-1(2H)-yl)butanamide]	1 to 8 (≈ 1.9 to 15.2 µM)	< 1	< 1
CC(CCN1CC=C(c2ccc(-c3ccc(OS(C)(=O)=O)cc3)cc2)CC1)(C(=O)NO)S(C)(=O)=O (stereo not drawn) [Example 69, 4′-(1-(4-(hydroxyamino)-3-methyl-3-(methylsulfonyl)-4-oxobutyl)-1,2,3,6-tetrahydropyridin-4-yl)-[1,1′-biphenyl]-4-yl methanesulfonate]	8 to 16	< 1	< 1
CC(CCN1CC=C(c2ccc(-c3ccc(F)cc3)cc2)CC1)(C(=O)NO)S(C)(=O)=O (stereo not drawn) [Example 58, 4-(4-(4′-fluoro-[1,1′-biphenyl]-4-yl)-3,6-dihydropyridin-1(2H)-yl)-N-hydroxy-2-methyl-2-(methylsulfonyl)butanamide]	> 16	< 1	1 to 8 (≈ 2.24 to 17.9 µM)
CC(C)CC#Cc1ccc(C2=CCN(CCC(C)(C(=O)NO)S(C)(=O)=O)CC2)cc1 (stereo not drawn) [Example 13, N-hydroxy-2-methyl-4-(4-(4-(4-methylpent-1-yn-1-yl)phenyl)-3,6-dihydropyridin-1(2H)-yl)-2-(methylsulfonyl)butanamide]	8 to 16 (≈ 18.5 to 37 µM)	< 1	1 to 8 (≈ 2.31 to 18.5 µM)
CC(CCN1CC=C(C#Cc2ccc(Br)cc2)CC1)(C(=O)NO)S(C)(=O)=O (stereo not drawn) [Example 53, 4-(4-((4-bromophenyl)ethynyl)-3,6-dihydropyridin-1(2H)-yl)-N-hydroxy-2-methyl-2-(methylsulfonyl)butanamide]	> 16	1 to 8 (≈ 2.2 to 17.6 µM)	1 to 8 (≈ 2.2 to 17.6 µM)
COCC#Cc1ccc(C2=CCN(CCC(C)(C(=O)NO)S(C)(=O)=O)CC2)cc1 (stereo not drawn) [Example 23, N-hydroxy-4-(4-(4-(3-methoxyprop-1-yn-1-yl)phenyl)-3,6-dihydropyridin-1(2H)-yl)-2-methyl-2-(methylsulfonyl)butanamide]	1 to 8 (≈ 2.38 to 19 µM)	< 1	1 to 8 (≈ 2.38 to 19 µM)
CN(C)CC#CC#Cc1ccc(C2=CCN(CCC(C)(C(=O)NO)S(C)(=O)=O)CC2)cc1F (stereo not drawn) [Example 45, 4-(4-(4-(5-(dimethylamino)penta-1,3-diyn-1-yl)-3-fluorophenyl)-3,6-dihydropyridin-1(2H)-yl)-N-hydroxy-2-methyl-2-(methylsulfonyl)butanamide]	1 to 8 (≈ 2.1 to 16.8 µM)	< 1	1 to 8 (≈ 2.1 to 16.8 µM)
CCCC#Cc1ccc(C2=CCN(CCC(C)(C(=O)NO)S(C)(=O)=O)CC2)cc1 (stereo not drawn) [Example 11, N-hydroxy-2-methyl-2-(methylsulfonyl)-4-(4-(4-(pent-1-yn-1-yl)phenyl)-3,6-dihydropyridin-1(2H)-yl)butanamide]	1 to 8 (≈ 2.39 to 19.1 µM)	< 1	1 to 8 (≈ 2.39 to 19.1 µM)
CN(C)CC#Cc1ccc(C2=CCN(CCC(C)(C(=O)NO)S(C)(=O)=O)CC2)cc1F (stereo not drawn) [Example 31, 4-(4-(4-(3-(dimethylamino)prop-1-yn-1-yl)-3-fluorophenyl)-3,6-dihydropyridin-1(2H)-yl)-N-hydroxy-2-methyl-2-(methylsulfonyl)butanamide]	1 to 8 (≈ 2.21 to 17.7 µM)	< 1	1 to 8 (≈ 2.21 to 17.7 µM)
CC(CCN1CC=C(C#CC#CCCCO)CC1)(C(=O)NO)S(C)(=O)=O (stereo not drawn) [Example 54, N-hydroxy-4-(4-(7-hydroxyhepta-1,3-diyn-1-yl)-3,6-dihydropyridin-1(2H)-yl)-2-methyl-2-(methylsulfonyl)butanamide]	> 16	8 to 16 (≈ 20.9 to 41.8 µM)	> 16
CC(CCN1CC=C(c2ccc(C#CCCCCO)cc2)CC1)(C(=O)NO)S(C)(=O)=O (stereo not drawn) [Example 29, N-hydroxy-4-(4-(4-(6-hydroxyhex-1-yn-1-yl)phenyl)-3,6-dihydropyridin-1(2H)-yl)-2-methyl-2-(methylsulfonyl)butanamide]	1 to 8 (≈ 2.23 to 17.8 µM)	< 1	1 to 8 (≈ 2.23 to 17.8 µM)
CCCCC#Cc1ccc(C2=CCN(CCC(C)(C(=O)NO)S(C)(=O)=O)CC2)cc1 (stereo not drawn) [Example 6, 4-(4-(4-(hex-1-yn-1-yl)phenyl)-3,6-dihydropyridin-1(2H)-yl)-N-hydroxy-2-methyl-2-(methylsulfonyl)butanamide]	8 to 16 (≈ 18.5 to 37 µM)	< 1	1 to 8 (≈ 2.31 to 18.5 µM)
CC(CCN1CC=C(c2ccc(C#CC#CCCCO)cc2)CC1)(C(=O)NO)S(C)(=O)=O (stereo not drawn) [Example 46, N-hydroxy-4-(4-(4-(7-hydroxyhepta-1,3-diyn-1-yl)phenyl)-3,6-dihydropyridin-1(2H)-yl)-2-methyl-2-(methylsulfonyl)butanamide]	1 to 8 (≈ 2.18 to 17.4 µM)	< 1	1 to 8 (≈ 2.18 to 17.4 µM)
CC(CCN1CC=C(c2ccc(C#CCCCO)cc2)CC1)(C(=O)NO)S(C)(=O)=O (stereo not drawn) [Example 18, N-hydroxy-4-(4-(4-(5-hydroxypent-1-yn-1-yl)phenyl)-3,6-dihydropyridin-1(2H)-yl)-2-methyl-2-(methylsulfonyl)butanamide]	1 to 8 (≈ 2.3 to 18.4 µM)	< 1	1 to 8 (≈ 2.3 to 18.4 µM)
CC(CCN1CC=C(c2ccc(-c3ccc(S(C)(=O)=O)cc3)cc2)CC1)(C(=O)NO)S(C)(=O)=O (stereo not drawn) [Example 64, N-hydroxy-2-methyl-2-(methylsulfonyl)-4-(4-(4′-(methylsulfonyl)-[1,1′-biphenyl]-4-yl)-3,6-dihydropyridin-1(2H)-yl)butanamide]	1 to 8 (≈ 1.97 to 15.8 µM)	< 1	1 to 8 (≈ 1.97 to 15.8 µM)
CC(CCN1CC=C(c2ccc(-c3ccc(Cl)cc3)cc2)CC1)(C(=O)NO)S(C)(=O)=O (stereo not drawn) [Example 57, 4-(4-(4′-chloro-[1,1′-biphenyl]-4-yl)-3,6-dihydropyridin-1(2H)-yl)-N-hydroxy-2-methyl-2-(methylsulfonyl)butanamide]	> 16	1 to 8 (≈ 2.16 to 17.3 µM)	> 16
Cc1csc(-c2ccc(C3=CCN(CCC(C)(C(=O)NO)S(C)(=O)=O)CC3)cc2)c1.Cl (stereo not drawn) [Example 72, N-hydroxy-2-methyl-2-(methylsulfonyl)-4-(4-(4-(4-methylthiophen-2-yl)phenyl)-3,6-dihydropyridin-1(2H)-yl)butanamide hydrochloride]	> 16	< 1	< 1
